From patent publication US8436155B2, “7,2″-dehydrate puerarin and its salts, preparation method and use thereof” (Shandong University, priority 2010, dated 2013)

Legend:
[1] = test system: rat arrhythmias; assay: Antiarrhythmic experiment: arrhythmia induced by 0.1% BaCl2 in rats, ECG monitored for 30 min; type: in vivo, Wistar rats; details: for Arrhythmia duration: if not restored within 30 min, the record was 30 min
Protocol: 1. Method: 60 male, healthy adult Wistar rats with body weight of 180-220 g were randomly divided into 6 groups, i.e., a normal saline group, a propylene glycol solvent gavage group, a propylene glycol solvent intravenous injection group, a puerarin injection group, a 7,2″-dehydrate puerarin gavage group, and a 7,2″-dehydrate puerarin intravenous injection group, with 10 rats each group. The intravenous injection was carried out one time a day for three consecutive days. The gavage was carried out two times a day for three consecutive days. The normal saline group was administered with equal volume of 0.9% NaCl injection. The dose of the propylene glycol solvent gavage group was 14.3% propylene glycol 1 mL/100 g. The dose of the propylene glycol solvent intravenous injection group was 40% propylene glycol 0.5 mL/100 g. The dose of the puerarin injection group was 50 mg/kg. The dose of the 7,2″-dehydrate puerarin gavage group was 60 mg/kg. The dose of the 7,2″-dehydrate puerarin intravenous injection group was 30 mg/kg. The rats were anesthetized with 10% chloral hydrate (0.35 mL/100 g) by intraperitoneal injection and fixed in the back. A BL-410 biological functional system was introduced to monitor the ECG changes of the rats. A femoral vein of the rats was exposed, a scalp needle inserted, and a constant speed syringe pump connected. 0.1% BaCl2 was pumped with a dose of 0.1 mL/100 g and a speed of 0.6 mL/min. From the injection of BaCl2 on, the ECGs were monitored and recorded within 30 min. The arrhythmia latency and arrhythmia duration were recorded (if not restored within 30 min, the record was 30 min). The experimental results were collected and analyzed using Software SPSS. If P<0.05, the results has significant difference.

[2] = test system: rabbit blood coagulation; assay: Anticoagulation experiment in vitro: coagulation time of oxalated rabbit blood after adding CaCl2; details: 37±0.5° C., x ± SD
Protocol: 1. Method: A rabbit was weighed and injected with 3% sodium pentobarbital 1 mL/kg via an ear vein, and then anaesthetized. […] The resulting solution was shaken uniformly and put into a constant temperature water bath (37±0.5° C.). Every 30 seconds, the small test tubes were tilted slightly once, and the coagulation time was recorded (the test tubes were tilted slightly, if no blood bled, the time was recorded as coagulation time). The experimental results were collected and analyzed using Software SPSS. If P<0.05, the results has significant difference.

[3] = test system: platelet aggregation; details: in vitro, dose-dependent; read-out: IC50, inhibition on platelet aggregation in vitro; cited from earlier work

Structure (SMILES) | Arrhythmia latency ([1]; gavage, 60 mg/kg, two times a day for three days, x ± SD) [s] | Arrhythmia duration ([1]; gavage, 60 mg/kg, x ± SD) [min] | Arrhythmia latency ([1]; intravenous injection, 30 mg/kg, once a day for three days, x ± SD) [s] | Arrhythmia duration ([1]; intravenous injection, 30 mg/kg, x ± SD) [min] | coagulation time ([2]; 0.75 mg/mL (low dose)) [min] | coagulation time ([2]; 1.5 mg/mL (medium dose)) [min] | coagulation time ([2]; 3 mg/mL) [min] | IC50 [3] [µM] | Arrhythmia duration ([1]; puerarin injection group, 50 mg/kg) [min] | Arrhythmia latency ([1]; puerarin injection group, 50 mg/kg, once a day for three days, x ± SD) [s]
O=c1c(-c2ccc(O)cc2)coc2c3c(ccc12)O[C@@H]1[C@@H](O)[C@H](O)[C@@H](CO)O[C@@H]31 [7,2″-dehydrate puerarin] | 29.25 ± 5.12 | 2.09 ± 0.98 | 47.25 ± 19.87 | 17.75 ± 4.61 | 14.7 ± 1.6 | 22.7 ± 2.6 | 38.5 ± 2.1 | – | – | –
CC(=O)Oc1ccccc1C(=O)Oc1ccc2c(=O)c(-c3ccc(O)cc3)coc2c1[C@@H]1O[C@H](CO)[C@@H](O)[C@H](O)[C@H]1O [7-acetylsalicylic acyl puerarin] | – | – | – | – | – | – | – | 910 | – | –
O=c1c(-c2ccc(O)cc2)coc2c([C@@H]3O[C@H](CO)[C@@H](O)[C@H](O)[C@H]3O)c(O)ccc12 [Puerarin] | – | – | – | – | – | – | 15.3 ± 2.4 | – | 30 | 86.75 ± 42.55
